Measurements published in US12435044B2, “Pyridazinone herbicides and pyridazinone intermediates used to prepare a herbicide” (FMC Corporation, priority 2018, dated 2025).

Columns and labels:
Type in all cases: in vivo
[1] = test system: sprangletop, Brdd. (bearded sprangletop, Leptochloa fascicularis); assay: Test F flooded paddy test; conditions: Flood, after 21 d
Source text: (§1) Three plastic pots (ca. 16-cm diameter) per rate were partially filled with sterilized Tama silt loam soil comprising a 35:50:15 ratio of sand, silt and clay and 2.6% organic matter. Separate plantings for each of the three pots were as follows. Seeds from the U.S. of monochoria (Monochoria vaginalis), sedge, umbrella (small-flower umbrella sedge, Cyperus difformis) and redstem (purple redstem, Ammannia coccinea), were planted into one 16-cm pot for each rate. Seeds from the U.S. of rice flatsedge (Cyperus iria), sprangletop, Brdd. (bearded sprangletop, Leptochloa fascicularis), one stand of 9 or 10 water seeded rice seedlings (Rice, W. S. Jap, Oryza sativa cv. ‘Japonica-M202’ or Rice, W. S. Ind, ‘Indica’), and two stands of 3 or 4 transplanted rice seedlings (Oryza sativa cv. ‘Japonica-M202’) were planted into one 16-cm pot for each rate. Seeds from the U.S. of barnyardgrass (Echinochloa crus-galli), and late watergrass (Echinochloa oryzicola) were planted into one 16-cm pot for each rate.
(§2) Plantings were sequential so that crop and weed species were at the 2.0 to 2.5-leaf stage at time of treatment.
(§3) Potted plants were grown in a greenhouse with day/night temperature settings of 30/27° C., and supplemental balanced lighting was provided to maintain a 16-hour photoperiod. Test pots were maintained in the greenhouse until test completion.
(§4) At time of treatment, test pots were flooded to 3 cm above the soil surface, treated by application of test compounds directly to the paddy water, and then maintained at that water depth for the duration of the test. Effects of treatments on rice and weeds were visually evaluated by comparison to untreated controls after 21 d. Plant response ratings, summarized in Table F, are based on a scale of 0 to 100 where 0 is no effect and 100 is complete control. A dash (-) response means no test result.

[2] = test system: rice flatsedge (Cyperus iria); assay: Test F flooded paddy test; conditions: Flood, after 21 d
Source text: as §1, §2, §3, §4

[3] = test system: redstem (purple redstem, Ammannia coccinea); assay: Test F flooded paddy test; conditions: Flood, after 21 d
Source text: as §1, §2, §3, §4

[4] = test system: sedge, umbrella (small-flower umbrella sedge, Cyperus difformis); assay: Test F flooded paddy test; conditions: Flood, after 21 d
Source text: as §1, §2, §3, §4

[5] = test system: corn (ZEAMD; Zea mays, cv. ‘Pioneer 1184’); assay: Test K pre-/postemergence, mixtures of Cpd. No. 20 with metribuzin or rimsulfuron
Source text: (§5) This test evaluated the effect of mixtures of Cpd. No. 20 with metribuzin or rimsulfuron on several plant species. Seeds of plant species selected from corn (ZEAMD; Zea mays, cv. ‘Pioneer 1184’), soybean (GLXMA; Glycine max, cv. Pioneer 35T58), giant foxtail (SETFA; Setaria faberi), palmer amaranth (AMAPA; Amaranthus palmeri), common waterhemp (AMATU; Amaranthus rudis), mare's tail (ERICA; Conyza canadensis), and common ragweed (AMBEL; Ambrosia artemisiifolia) were planted in pots containing Tama Silt Loam soil and treated preemergence with a directed soil spray using test chemicals formulated in a non-phytotoxic solvent mixture which included a surfactant.
(§6) At the same time, plants selected from these crop and weed species were planted in pots containing Redi-Earth® planting medium (Scotts Company, 14111 Scottslawn Road, Marysville, Ohio 43041) comprising spaghnum peat moss, vermiculite, wetting agent and starter nutrients and treated postemergence with test chemicals formulated in the same manner. Plants ranged in height from 2 to 10 cm and were in the one- to two-leaf stage for the postemergence treatment. Treated plants and untreated controls were maintained in a greenhouse for approximately 14-21 d, after which time all treated plants were compared to untreated controls and visually evaluated for injury. Plant response ratings, summarized in Tables K1 to K4, are based on a 0 to 100 scale where 0 is no effect and 100 is complete control. A dash (-) response means no test result. Test results are presented as a mean of 4 reps.

[6] = test system: palmer amaranth (AMAPA; Amaranthus palmeri); assay: as above
Source text: as §5, §6

[7] = test system: mare's tail (ERICA; Conyza canadensis); assay: as above
Source text: as §5, §6

[8] = test system: common ragweed (AMBEL; Ambrosia artemisiifolia); assay: as above
Source text: as §5, §6

[9] = test system: common waterhemp (AMATU; Amaranthus rudis); assay: as above
Source text: as §5, §6

[10] = test system: soybean (GLXMA; Glycine max, cv. Pioneer 35T58); assay: as above
Source text: as §5, §6

[11] = test system: giant foxtail (SETFA; Setaria faberi); assay: as above
Source text: as §5, §6

Cc1cc(Cl)c2ccccc2c1-c1c(O)c(Cl)nn(C)c1=O [Cpd. No. 65]
Plant response rating (0 to 100 scale) ([1]; 64 g ai/ha): 98
Plant response rating (0 to 100 scale) ([1]; 125 g ai/ha): 100

Cc1ccc2ccc(C)c(-c3c(O)c(Cl)nn(C)c3=O)c2c1 [Cpd. No. 20, 6-chloro-4-(2,7-dimethyl-1-naphthalenyl)-5-hydroxy-2-methyl-3(2H)-pyridazinone]
Plant response rating (0 to 100 scale) ([2]; 31 g ai/ha): 70
Plant response rating (0 to 100 scale) ([2]; 62 g ai/ha): 85
Plant response rating (0 to 100 scale) ([2]; 125 g ai/ha): 97
Plant response rating (0 to 100 scale) ([2]; 250 g ai/ha): 100
Plant response rating (0 to 100 scale) ([3]; 31 g ai/ha): 0
Plant response rating (0 to 100 scale) ([3]; 62 g ai/ha): 0
Plant response rating (0 to 100 scale) ([3]; 125 g ai/ha): 92
Plant response rating (0 to 100 scale) ([3]; 250 g ai/ha): 99
Plant response rating (0 to 100 scale) ([4]; 31 g ai/ha): 0
Plant response rating (0 to 100 scale) ([4]; 62 g ai/ha): 60
Plant response rating (0 to 100 scale) ([4]; 125 g ai/ha): 95
Plant response rating (0 to 100 scale) ([4]; 250 g ai/ha): 100
ZEAMD plant response rating, 0 to 100 scale ([5]; postemergence, 8 g a.i./ha): 0
ZEAMD plant response rating, 0 to 100 scale ([5]; postemergence, 16 g a.i./ha): 0
ZEAMD plant response rating, 0 to 100 scale ([5]; postemergence, 31 g a.i./ha): 0
ZEAMD plant response rating, 0 to 100 scale ([5]; postemergence, 62 g a.i./ha): 0
ZEAMD plant response rating, 0 to 100 scale ([5]; preemergence, 8 g a.i./ha): 0
ZEAMD plant response rating, 0 to 100 scale ([5]; preemergence, 16 g a.i./ha): 0
ZEAMD plant response rating, 0 to 100 scale ([5]; preemergence, 31 g a.i./ha): 0
ZEAMD plant response rating, 0 to 100 scale ([5]; preemergence, 62 g a.i./ha): 0
AMAPA plant response rating, 0 to 100 scale ([6]; postemergence, 8 g a.i./ha): 28
AMAPA plant response rating, 0 to 100 scale ([6]; postemergence, 16 g a.i./ha): 38
AMAPA plant response rating, 0 to 100 scale ([6]; postemergence, 31 g a.i./ha): 33
AMAPA plant response rating, 0 to 100 scale ([6]; postemergence, 62 g a.i./ha): 60
AMAPA plant response rating, 0 to 100 scale ([6]; preemergence, 8 g a.i./ha): 0
AMAPA plant response rating, 0 to 100 scale ([6]; preemergence, 16 g a.i./ha): 26
AMAPA plant response rating, 0 to 100 scale ([6]; preemergence, 31 g a.i./ha): 50
AMAPA plant response rating, 0 to 100 scale ([6]; preemergence, 62 g a.i./ha): 45
ERICA plant response rating, 0 to 100 scale ([7]; postemergence, 8 g a.i./ha): 77
ERICA plant response rating, 0 to 100 scale ([7]; postemergence, 16 g a.i./ha): 85
ERICA plant response rating, 0 to 100 scale ([7]; postemergence, 31 g a.i./ha): 92
ERICA plant response rating, 0 to 100 scale ([7]; postemergence, 62 g a.i./ha): 93
ERICA plant response rating, 0 to 100 scale ([7]; preemergence, 8 g a.i./ha): 89
ERICA plant response rating, 0 to 100 scale ([7]; preemergence, 16 g a.i./ha): 100
ERICA plant response rating, 0 to 100 scale ([7]; preemergence, 31 g a.i./ha): 100
ERICA plant response rating, 0 to 100 scale ([7]; preemergence, 62 g a.i./ha): 100
AMBEL plant response rating, 0 to 100 scale ([8]; postemergence, 8 g a.i./ha): 82
AMBEL plant response rating, 0 to 100 scale ([8]; postemergence, 16 g a.i./ha): 82
AMBEL plant response rating, 0 to 100 scale ([8]; postemergence, 31 g a.i./ha): 92
AMBEL plant response rating, 0 to 100 scale ([8]; postemergence, 62 g a.i./ha): 97
AMBEL plant response rating, 0 to 100 scale ([8]; preemergence, 8 g a.i./ha): 0
AMBEL plant response rating, 0 to 100 scale ([8]; preemergence, 16 g a.i./ha): 26
AMBEL plant response rating, 0 to 100 scale ([8]; preemergence, 31 g a.i./ha): 55
AMBEL plant response rating, 0 to 100 scale ([8]; preemergence, 62 g a.i./ha): 100
AMATU plant response rating, 0 to 100 scale ([9]; postemergence, 8 g a.i./ha): 50
AMATU plant response rating, 0 to 100 scale ([9]; postemergence, 16 g a.i./ha): 57
AMATU plant response rating, 0 to 100 scale ([9]; postemergence, 31 g a.i./ha): 68
AMATU plant response rating, 0 to 100 scale ([9]; postemergence, 62 g a.i./ha): 62
AMATU plant response rating, 0 to 100 scale ([9]; preemergence, 8 g a.i./ha): 0
AMATU plant response rating, 0 to 100 scale ([9]; preemergence, 16 g a.i./ha): 0
AMATU plant response rating, 0 to 100 scale ([9]; preemergence, 31 g a.i./ha): 20
AMATU plant response rating, 0 to 100 scale ([9]; preemergence, 62 g a.i./ha): 30
GLXMA plant response rating, 0 to 100 scale ([10]; postemergence, 8 g a.i./ha): 0
GLXMA plant response rating, 0 to 100 scale ([10]; postemergence, 16 g a.i./ha): 0
GLXMA plant response rating, 0 to 100 scale ([10]; postemergence, 31 g a.i./ha): 8
GLXMA plant response rating, 0 to 100 scale ([10]; postemergence, 62 g a.i./ha): 13
GLXMA plant response rating, 0 to 100 scale ([10]; preemergence, 8 g a.i./ha): 0
GLXMA plant response rating, 0 to 100 scale ([10]; preemergence, 16 g a.i./ha): 0
GLXMA plant response rating, 0 to 100 scale ([10]; preemergence, 31 g a.i./ha): 0
GLXMA plant response rating, 0 to 100 scale ([10]; preemergence, 62 g a.i./ha): 0
SETFA plant response rating, 0 to 100 scale ([11]; postemergence, 8 g a.i./ha): 37
SETFA plant response rating, 0 to 100 scale ([11]; postemergence, 16 g a.i./ha): 62
SETFA plant response rating, 0 to 100 scale ([11]; postemergence, 31 g a.i./ha): 77
SETFA plant response rating, 0 to 100 scale ([11]; postemergence, 62 g a.i./ha): 92
SETFA plant response rating, 0 to 100 scale ([11]; preemergence, 8 g a.i./ha): 6
SETFA plant response rating, 0 to 100 scale ([11]; preemergence, 16 g a.i./ha): 50
SETFA plant response rating, 0 to 100 scale ([11]; preemergence, 31 g a.i./ha): 84
SETFA plant response rating, 0 to 100 scale ([11]; preemergence, 62 g a.i./ha): 100
